Data set [1] concerns HeLa cells. Type of data set: cell-based. How it is done:
Cell-penetrating ability was evaluated using the fluorescently-labeled versions of the dimeric bundle peptides synthesized in Example 3, and measured as EC50 values according to the method described in Experimental Example 3.
1×10^5 HeLa cells were seeded into a 24-well plate. After 24 hours, the peptide was added to the cells and further incubation was performed for 3 hours. The incubated cells were harvested, washed with PBS, suspended in PBS, and then analyzed by fluorescence-activated cell sorting (FACS; BD Accuri, USA). The cells whose fluorescence intensity exceeds the maximum intensity of untreated cells were classified as fluorescence-positive cells.

For data set [2], the system named is HeLa cells. Nature of the data set: Co-localization with endosome, lysosome and cardiolipin (NAO) markers. It counts as cell-based. How it is done: Next, to investigate whether mitochondrial damage affects the amount of peptide present in lysosomes, cardiolipin-specific targeting was investigated using NAO in the presence or absence of CCCP.
For microscopic observation, HeLa cells were cultured in glass-bottom dishes (SPL, 200350, Korea). The cells were then treated with peptides for 3 hours and stained with MitoTracker™ (Thermo Fisher Scientific, A1372, USA; 100 nM, 1 hr), nonyl acridine orange (NAO; Thermo Fisher Scientific, A1372; 100 nM, 1 hr), Hoechst 33342 ([…], 20 min), CellLight™ early endosomes-GFP (Thermo Fisher Scientific, C10586; […], 16 hr), and/or LysoTracker™ (Thermo Fisher Scientific, L7525; 50 nM, 30 min). The cells were then rinsed with PBS and HBSS was added thereto. Images of the stained cells were obtained using a microscope (Zeiss LSM 880 and ELYRA PS.1). To generate ultra-high resolution images, a structured illumination process was performed with ZEN Black software. Pearson r values were calculated by using ImageJ software.

The test system of another data set is SH-SY5Y cells. Nature of the data set: ROS production inhibiting ability, comparison of SS-31 and CMP3013. It counts as cell-based. The following applies: CCCP, rotenone, antimycin A or H2O2, SS-31 100 nM or 1 μM, CMP3013 10 nM or 100 nM. The method, then: To compare effects of the two peptides on restoration of mitochondrial function, SS-31 and CMP3013 were tested for their ROS production inhibiting ability. The relative ROS levels in cells were compared by fluorescence intensity according to the method described in Experimental Example 6. SH-SY5Y cells were treated with four different mitochondrial damaging agents (200 μM CCCP, 50 μM rotenone, 10 μM antimycin A, or 50 μM H2O2) to induce production of ROS by mitochondrial damage.
The second method was performed as follows. First, 2×10^4 HeLa cells were seeded into a 96-well plate. After 24 hours, the cells were incubated with each peptide for 3 hours, and then staining with H2DCFDA (25 μM, 30 min) was performed. After performing washing twice with PBS, the cells in HBSS were used for analysis of ROS levels. The DCF signal of each well was obtained using a microplate reader (TECAN) at 37° C. (Ex/Em=485/535 nm).

Data set [3] in a line: Cytotoxicity by WST-1 assay. It counts as cell-based. The following applies: human, HeLa cells, one day, read-out: concentration at which 50% of the cultured cells were killed. How it is done:
The cytotoxicity was measured by WST-1 assay. Specifically, 1×10^4 HeLa cells were seeded into 96-well plates. After 24 hours, the cells were treated with different concentrations of CMP3013 peptide indicated in FIG. 12 and incubated for one day. At the end of the incubation, the culture medium was replaced with new culture medium, treatment with EZ-Cytox (DoGEN, South Korea) at 10 μL was performed per well, and incubation was performed for 30 minutes. Then, the absorbance was measured at 450 nm. As a result, it was identified that the cytotoxicity of CMP3013 was only observed at micromolar or higher levels, and the concentration, at which 50% of the cultured cells were killed, reached 10 micromolar (FIG. 12).
In general terms: Formazan colour is commonly taken as a measure of viable cells.

The nature of data set [4]: Cardiolipin binding assay, NBD fluorescence with liposomes. How it is done:
To further validate specificity of CMP3013 for cardiolipin-rich membranes identified in Example 9, two model systems mimicking the inner mitochondrial membrane were constructed using POPC (1-palmitoyl-2-oleoyl-sn-glycero-3-phosphocholine) and POPE (1-palmitoyl-2-oleoyl-sn-glycero-3-phosphoethanolamine), and cardiolipin binding assays were performed using an NBD-labeled CMP3013 monomer (NBD-CMP3013m), according to the method described in Experimental Example 12.
For the association experiments, 1 μM of NBD-labeled peptide dissolved in PBS was prepared in a black 96-well plate. Liposome (POPC:POPE=2:1 or POPC:POPE=2:1, containing 10% cardiolipin) was added to the peptide until the desired concentration was achieved. The mixture of NBD-peptide and liposome was mixed well through pipetting, and then fluorescence emission of the sample was monitored (λex=467 nm, λem=536 nm).
For the association experiments depending on cardiolipin ratio, 1 μM of NBD-labeled peptide or C6-NBD dissolved in PBS was prepared in a black 96-well plate. Liposome (POPC:POPE=2:1, containing 0 to 20% cardiolipin) was added to the peptide until the desired concentration (5 μM) was achieved. This mixture was mixed well through pipetting and fluorescence emission of the sample was monitored (λex=467 nm, λem=536 nm).
For dissociation experiments, 1 μM of NBD-labeled peptide dissolved in PBS was prepared in a black 96-well plate. Liposome (POPC:POPE=2:1 or POPC:POPE=2:1, containing 10% cardiolipin) was added to the peptide until the desired concentration (100 μM) was achieved. The mixture of NBD-peptide and liposome was mixed well through pipetting and fluorescence intensity of the mixture was measured (λex=467 nm, λem=536 nm). The unlabeled peptide (acetylated peptide) was then added to the mixture and mixed well through pipetting. Incubation in the dark was performed for 10 minutes, and then changes in fluorescence intensity were monitored. Peptide addition and fluorescence measurement were repeated until the concentration of acetylated peptide reached 40 μM.

The structures appear in SMILES notation. Where a SMILES comes first, the peptide text is derived from it.

Turning to `CC(=O)N[C@@H](CC1CCCCC1)C(=O)N[C@H]1CSSC[C@@H](C(=O)N[C@@H](CCCNC(=N)N)C(N)=O)NC(=O)[C@H](CC2CCCCC2)NC(=O)[C@H](CCCNC(=N)N)NC(=O)[C@H](CCCNC(=N)N)NC(=O)[C@H](CC2CCCCC2)NC(=O)[C@H](CC(C)C)NC(=O)[C@H](CCCNC(=N)N)NC(=O)[C@@H](NC(=O)[C@H](CC2CCCCC2)NC(C)=O)CSSC[C@@H](C(=O)N[C@@H](CCCNC(=N)N)C(N)=O)NC(=O)[C@H](CC2CCCCC2)NC(=O)[C@H](CCCNC(=N)N)NC(=O)[C@H](CCCNC(=N)N)NC(=O)[C@H](CC2CCCCC2)NC(=O)[C@H](CC(C)C)NC(=O)[C@H](CCCNC(=N)N)NC1=O` [CMP3013] (HELM PEPTIDE1{[ac].[Cha].C.R.L.[Cha].R.R.[Cha].C.R.[am]}|PEPTIDE2{[ac].[Cha].C.R.L.[Cha].R.R.[Cha].C.R.[am]}$PEPTIDE1,PEPTIDE2,3:R3-10:R3|PEPTIDE1,PEPTIDE2,10:R3-3:R3$$$V2.0), the “improvement in cell penetration rate as compared with SS-31” value with HeLa cells [1] was “approximately 100 fold”. Also, in the data set on HeLa cells [1] (comparison of CMP3013, LR10, MPP1a, SS-31), the “level of EC50 value (cell-penetrating ability)” value is recorded as “lowest EC50 value”. For the same compound, the “proportion of peptide present in lysosomes (Pearson r, CMP3013-Lysotracker)” value in the data set with HeLa cells [2] (absence of CCCP) is on record as 0.30; with HeLa cells [2] (presence of CCCP), 0.29. For the same compound, the results for the “co-localization of CMP3013 with cardiolipin (NAO), Pearson r” value with HeLa cells [2] (not treated with CCCP) and with HeLa cells [2] (treated with CCCP) were 0.08 and 0.43, respectively. Besides, the “ROS production inhibiting ability” value with SH-SY5Y cells is “equivalent or better ROS production inhibiting ability than SS-31”. In addition, the CC50 at 24 h in data set [3] is 10 µM. In data set [4], the “stronger binding capacity for cardiolipin than SS-31” value is “approximately 100 fold”.
